Measured values taken from PubChem BioAssay (NCI).
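1) Cells in 96-well plates. 2) Compound, 48 h, 5 concentrations. 3) Linear interpolation between surrounding doses. 4) Unreached endpoint = highest concentration. TGI is the concentration that stops growth completely.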

How the values were obtained:
Assay in all cases: inhibition of tumour cell growth, NCI panel, 48 h
[1] = system: NCI-H522 lung
[2] = system: OVCAR-3 ovarian
[3] = system: IGROV1 ovarian
[4] = system: NCI-H23 lung
[5] = system: DU-145 prostate
[6] = system: SF-295 CNS
[7] = system: MOLT-4 leukemia
[8] = system: SN12C renal
[9] = system: K-562 leukemia
[10] = system: NCI-H226 lung
[11] = system: HCT-116 colon
[12] = system: SF-539 CNS
[13] = system: OVCAR-8 ovarian
[14] = system: SNB-19 CNS
[15] = system: MDA-MB-435
[16] = system: NCI/ADR-RES ovarian
[17] = system: SF-268 CNS
[18] = system: HT29 colon
[19] = system: HS 578T breast
[20] = system: RPMI-8226 leukemia

Row | SMILES | TGI [1] | TGI [2] | TGI [3] | TGI [4] | TGI [5] | TGI [6] | TGI [7] | TGI [8] | TGI [9] | TGI [10] | TGI [11] | TGI [12] | TGI [13] | TGI [14] | TGI [15] | TGI [16] | TGI [17] | TGI [18] | TGI [19] | TGI [20]
1 | COc1ccc(C2SCC(=O)N2c2ccc(-c3ccc(-n4c(-c5ccccc5)nc5ccccc5c4=O)cc3)cc2)cc1 (stereo not given) | > 100 µM | 46.8 µM | > 100 µM | > 100 µM | > 100 µM | > 100 µM | > 100 µM | > 100 µM | > 100 µM | > 100 µM | > 100 µM | > 100 µM | > 100 µM | > 100 µM | > 100 µM | > 100 µM | > 100 µM | 30.5 µM | > 100 µM | > 100 µM
2 | CC(=O)O[C@H]1C[C@]2(C)C(CCC3O[C@@]32C)[C@@]2(CC(c3ccoc3)OC2O)[C@@H]1C (stereo not given in full) | > 100 µM | > 100 µM | > 100 µM | > 100 µM | > 100 µM | > 100 µM | 93 µM | > 100 µM | > 100 µM | > 100 µM | > 100 µM | > 100 µM | > 100 µM | > 100 µM | > 100 µM | > 100 µM | > 100 µM | > 100 µM | > 100 µM | 81.1 µM
3 | O=C1C2C=CC1C1C(=O)OC(=O)C21 (stereo not given) | > 100 µM | > 100 µM | > 100 µM | > 100 µM | > 100 µM | > 100 µM | > 100 µM | > 100 µM | > 100 µM | > 100 µM | > 100 µM | > 100 µM | > 100 µM | > 100 µM | > 100 µM | > 100 µM | > 100 µM | > 100 µM | > 100 µM | > 100 µM
4 | Nc1nc(Cl)cc(NCC2(CO)CCC(Cc3ccccc3)C2)n1 (stereo not given) | 49 µM | > 100 µM | > 100 µM | 72.3 µM | > 100 µM | > 100 µM | 30.6 µM | > 100 µM | 64.8 µM | 98.7 µM | > 100 µM | > 100 µM | > 100 µM | > 100 µM | 33.8 µM | > 100 µM | > 100 µM | > 69.4 µM | > 79.9 µM | 62.7 µM
5 | N#Cc1[nH]c(=O)n(-c2ccc(Cl)cc2)c1N | > 10 µM | > 10 µM | > 10 µM | > 10 µM | > 10 µM | > 10 µM | > 10 µM | > 10 µM | > 10 µM | > 10 µM | > 10 µM | > 10 µM | > 10 µM | > 10 µM | > 10 µM | > 10 µM | > 10 µM | > 10 µM | > 10 µM | > 10 µM
6 | Cc1cc(N(CCC#N)CCC#N)ccc1/C(N=Nc1cccc([N+](=O)[O-])c1)=N/NC(=O)c1cc(Cl)ccc1O | 90.2 µM | 59.5 µM | 32.8 µM | 64.1 µM | > 100 µM | > 100 µM | 32.1 µM | > 100 µM | > 100 µM | > 100 µM | > 100 µM | > 100 µM | > 100 µM | > 100 µM | > 100 µM | > 100 µM | > 100 µM | > 100 µM | > 100 µM | 47.5 µM
7 | COc1cc(OC)c2c(c1OC)OCC(Cc1ccc(O)cc1)C2=O (stereo not given) | > 25 µM | > 25 µM | > 25 µM | > 25 µM | > 25 µM | > 25 µM | > 25 µM | > 25 µM | > 25 µM | > 25 µM | > 25 µM | > 25 µM | > 25 µM | > 25 µM | > 25 µM | > 25 µM | > 25 µM | > 25 µM | > 25 µM | > 25 µM
8 | COc1ccc2c3c1OC1C(=O)C=CC4(O)C(C2)NCC[C@@]314 (stereo not given in full) | 1.99 µM | 3.99 µM | 15.1 µM | 5.64 µM | 13.1 µM | 14.9 µM | 9.13 µM | 4.42 µM | > 80.8 µM | 25.7 µM | 6.32 µM | 4.02 µM | 6.36 µM | 19.1 µM | 5.79 µM | 20.3 µM | 7.55 µM | 11.7 µM | 6.39 µM | 13.2 µM
9 | NNC(=O)c1c(Cl)c(Cl)c(Cl)c(Cl)c1-c1nc2ccccc2[nH]1 | > 100 µM | 24.4 µM | 27.7 µM | 59.5 µM | 38.3 µM | 24 µM | 26.3 µM | > 100 µM | 26 µM | 65.4 µM | 32.6 µM | > 100 µM | > 100 µM | 88.8 µM | 6.38 µM | 59.8 µM | > 100 µM | 61.8 µM | 86.8 µM | > 100 µM
10 | COC(=O)C(CCC1C=CCC1)N=Cc1ccccc1 (stereo not given) | > 100 µM | > 100 µM | > 100 µM | > 100 µM | > 100 µM | > 100 µM | > 100 µM | > 100 µM | > 100 µM | > 100 µM | > 100 µM | > 100 µM | > 100 µM | > 100 µM | > 100 µM | > 100 µM | > 100 µM | > 100 µM | > 100 µM | 84.7 µM
11 | Cc1ccc2c(c1)NC(=O)CCSSCCC(=O)N2 | > 100 µM | > 100 µM | > 100 µM | > 100 µM | > 100 µM | > 100 µM | > 100 µM | > 100 µM | > 100 µM | > 100 µM | > 100 µM | > 100 µM | > 100 µM | > 100 µM | > 100 µM | > 100 µM | > 100 µM | > 100 µM | > 100 µM | > 100 µM
